Results from article PMC5611513, “Structure-Based Prototype Peptides Targeting the Pseudomonas aeruginosa Type VI Secretion System Effector as a Novel Antibacterial Strategy” (Frontiers in Cellular and Infection Microbiology, 2017).
Numbering of substitutions follows the chain as printed.

Legend:
TplEi = target: T1, TplEi (Pseudomonas aeruginosa, UniProt Q9I3K3); experiment: Isothermal titration calorimetry (ITC) of TplE peptides with wild type TplEi; assay type: binding; settings: for Kd: 25°C, 20 mM Tris-HCl pH 8.0, 100 mM NaCl, A peptides (WT) and its mutants, Figure 3D,E; for effect of the mutation on “L” peptide binding to TplEi: result in words, compared to WT peptide
T1 sequence (Q9I3K3 1-380): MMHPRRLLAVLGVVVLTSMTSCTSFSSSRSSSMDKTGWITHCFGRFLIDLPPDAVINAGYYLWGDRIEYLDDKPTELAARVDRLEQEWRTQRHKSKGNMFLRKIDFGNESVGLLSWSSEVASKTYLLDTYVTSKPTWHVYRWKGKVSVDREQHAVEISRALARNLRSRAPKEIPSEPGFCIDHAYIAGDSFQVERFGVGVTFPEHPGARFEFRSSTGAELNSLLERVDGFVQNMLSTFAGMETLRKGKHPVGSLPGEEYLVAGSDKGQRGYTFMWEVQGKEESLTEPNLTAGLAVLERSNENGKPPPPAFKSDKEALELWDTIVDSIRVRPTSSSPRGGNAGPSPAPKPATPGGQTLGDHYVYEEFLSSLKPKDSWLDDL
Protocol: (§1) Isothermal titration calorimetry (ITC) assay was performed with a MicroCalTM iTC200 calorimeter (MicroCal, USA) at 25°C; both the protein and peptides were dissolved with the same buffer (20 mM Tris-HCl, pH = 8.0, 100 mM NaCl). The concentration of TplEi was between 0.03 and 0.04 mM. The concentrations of wild type peptides and mutants were between 1 and 2 mM. Titration was scheduled with 18 consecutive injections of 2 μl of peptide with a 120 s interval between injections, using a stirring rate of 600 rpm. Data acquisition and analysis were performed using MicroCal Origin software (version 7.0).

E. coli BL21 (DE3) = experiment: Cell-toxicity assay, spot growth on LB agar; assay type: cell-based, Escherichia coli; settings: 0.045 mM IPTG, 24 h; for decrease of growth inhibition on expression of mutated “L” peptide: E. coli BL21 (DE3) expressing TplE-TplEi and mutated peptide, compared with “L” peptide
Protocol: Cell-toxicity assay was carried as previously described with minor modification (Jiang et al., [2016]). […] A 2 μl bacterial dilution was spotted onto LB agar plate containing 0.045 mM IPTG. Images were taken after 24 h growth.
(A) Diagrams of TplE, TplE-TplEi and “L” peptide expressing constructs. Expression of vector sequence and “L” peptide mutant with the PelB signal peptide was used as a control. […] A 10-fold serial dilution of overnight culture was spotted on LB agar plates from left to right. The experiments were performed at least 3 times.

TplEi R266A mutant [1] = target: T2, TplEi R266A mutant (Pseudomonas aeruginosa, UniProt Q9I3K3); experiment: ITC of the “L” peptide with TplEi mutant R266A; assay type: binding; settings: 25°C, TplEi R266A, Figure S3
T2 sequence (Q9I3K3 1-380 R226A): T1 sequence (Q9I3K3 1-380) with R226A
Protocol: as §1
(§2) To further elucidate the mechanism underlying the “L” peptide binding, we mutated several key residues of TplEi interacting with the “L” peptide, and measured the binding affinity of the “L” peptide to these TplEi mutants using ITC. The side chain of K100 of the “L” peptide forms four hydrogen bonds with TplEi, among which only one involves side chain interaction with S215 of TplEi, whereas the other three involve backbone atoms. […] Similarly, we prepared TplEi mutants E219A and R266A, respectively. E219 forms a hydrogen bond with backbone NH group of K100 of the “L” peptide, and R266 forms two hydrogen bonds with the carbonyl group of W96 of the peptide (Figure 3A).

TplEi R266A mutant [2] = target: T3, TplEi R266A mutant (Pseudomonas aeruginosa, UniProt Q9I3K3, R226A, form not given); experiment: ITC of the “L” peptide with TplEi mutant R266A; assay type: binding; settings: TplEi R266A vs wild type TplEi
T3 sequence (Q9I3K3 1-380 R226A): T1 sequence (Q9I3K3 1-380) with R226A
Protocol: as §1, §2

TplEi S215A mutant = target: T4, TplEi S215A mutant (Pseudomonas aeruginosa, UniProt Q9I3K3, S215A); experiment: ITC of the “L” peptide with TplEi mutant S215A; assay type: binding
T4 sequence (Q9I3K3 1-380 S215A): T1 sequence (Q9I3K3 1-380) with S215A
Protocol: as §1, §2

TplEi E219A mutant = target: T5, TplEi E219A mutant (Pseudomonas aeruginosa, UniProt Q9I3K3, E219A); experiment: ITC of the “L” peptide with TplEi mutant E219A; assay type: binding
T5 sequence (Q9I3K3 1-380 E219A): T1 sequence (Q9I3K3 1-380) with E219A
Protocol: as §1, §2

Ac-DDLFASAGALWTWAWRGPKARQELLKAEQVEVDD-NH2 [I88A]
Kd (TplEi): 4.8 µM

Ac-DDLFASIGAAWTWAWRGPKARQELLKAEQVEVDD-NH2 [L91A]
Kd (TplEi): 3.7 µM

Ac-DDLFASIGALATWAWRGPKARQELLKAEQVEVDD-NH2 [W92A]
Kd (TplEi): 50 µM
decrease of growth inhibition on expression of mutated “L” peptide (E. coli BL21 (DE3)): moderate decreased growth inhibition

Ac-DDLFASIGALWTWAARGPKARQELLKAEQVEVDD-NH2 [W96A]
Kd (TplEi): 0.031 µM
effect of the mutation on “L” peptide binding to TplEi (TplEi): increased binding affinity

Ac-DDLFASIGALWTWAWRAPKARQELLKAEQVEVDD-NH2 [G98A]
Kd (TplEi): 1.31 µM

Ac-DDLFASIGALWTWAWRGAKARQELLKAEQVEVDD-NH2 [P99A]
Kd (TplEi): 0.057 µM
effect of the mutation on “L” peptide binding to TplEi (TplEi): increased binding affinity

Ac-DDLFASIGALWTWAWRGPKARQELLKAEQVEVDD-NH2 [“L” peptide]
Kd (TplEi R266A mutant [1]): 46.9 µM
decreased binding affinity (TplEi R266A mutant [2]): 375 folds
Kd (TplEi S215A mutant; 25°C, TplEi S215A, Figure S3): 7.8 µM
reduced binding affinity comparing to wild type TplEi (TplEi S215A mutant; TplEi S215A vs wild type TplEi): ~62 folds
growth inhibition on expression of the peptide (E. coli BL21 (DE3); E. coli BL21 (DE3) expressing periplasmic-targeted TplE-TplEi and peptide, 10-fold serial dilutions, at least 3 experiments): significant TplE-dependent growth inhibition
Kd (TplEi E219A mutant; 25°C, TplEi E219A, Figure S3): 35.5 µM
decreased binding affinity (TplEi E219A mutant; TplEi E219A vs wild type TplEi): 284 folds

DDLFASIGALWTWAWRGPEARQELLKAEQVEVDD [K100E]
effect of the mutation on “L” peptide binding to TplEi (TplEi): completely abolished
decrease of growth inhibition on expression of mutated “L” peptide (E. coli BL21 (DE3)): strong
